{"source": "patent US20240316000A1", "about": "“METHODS OF TREATMENT” (DIFFUSION PHARMACEUTICALS LLC, priority 2021, published 2024)", "key": {"[1]": {"test": "Stability of TSC versus pH", "assay_type": "physicochemical"}, "[2]": {"tested_on": "permanent (24-hour) focal ischemia", "settings": "dosages tested 0.023 to 4.580 mg/kg; cited from earlier work"}}}
{"molecule": "CC(/C=C/C=C(\\C)C(=O)[O-])=C\\C=C\\C=C(C)\\C=C\\C=C(/C)C(=O)O.[Na+]", "note": "[TSC, trans sodium crocetinate]", "values": [{"measurement": "Stability as a function of pH", "setting": "[1]", "result": "more stable at higher pHs"}, {"measurement": "Dosage of maximal protective effect on cerebral infarct volume", "setting": "[2]", "result": 0.092, "unit": "mg/kg"}]}
